Measurements published in US5932217A, “Peptides which inhibit adhesion between leukocytes and endothelial cells” (priority 1994, dated 1999).

Assays:
[1] = test system: human umbilical vein endothelial cells; assay: Transendothelial migration of neutrophils; assay type: cell-based; conditions: peptides 0.01 mM
Procedure: Transendothelial migration of neutrophils was studied based on a method described by Muller et al. (1992), J. Exp. Med. 176: 819-828. Briefly, human neutrophils suspended in ice-cold Hanks balanced salt solution (HBSS) containing Ca^++ and Mg^++ (Sigma) were fluoresceinated by adding 3.3 μl/ml 5-(and 6-)carboxyfluorescein diacetate, succinimidyl ester (CFSE, Molecular Probes Inc., Oreg.). After incubation for 30 mins. on ice, neutrophils were washed twice in cold HBSS with Ca^++ and Mg^++ and resuspended in cold Medium 199 (M199, Sigma) to a final concentration of 10^6 /ml. Human umbilical vein endothelial cells were subcultured at confluence into 96-well tissue culture plates (Becton Dickinson Labware, Lincoln Park, N.J.) that were coated with hydrated collagen gel (Vitrogen; Collagen Corporation, Palo Alto, Calif.) and fibronectin. Endothelial cells were stimulated with 10 ng/ml TNF-alpha for 4 hours and washed three times with warm M199. Neutrophils (10^6 /ml) were preincubated with 0.01 mM of peptides or with 1 μM of native FHA in M199 for 5 mins. on ice before they were added in 100 μl aliquots to the endothelial cells. For positive control, neutrophils were pre-incubated with 25 μg/ml anti-CD18 mAb IB4. For negative control, neutrophils were treated with 25 μg/ml mAb W6/32 against HLA class I antigen (Dako, Carpinteria, Calif.). The cells were incubated for 1 hour at 37° C., 5% CO2. To terminate transmigration, the supernatant fluid was aspirated and the wells were filled with warm 1 mM EGTA (Sigma) in HBSS without Ca and Mg. The plates were covered with plate sealers (Dynatech, Alexandria, Va.) and centrifuged in an inverted position at 250 g for 3 mins. at room temperature. To remove residual non-transmigrated neutrophils from the endothelial cells, monolayers were washed twice with 200 μl of warm Hanks solution without Ca and Mg. Fluorescence was quantitated using a fluorescence counter (Millipore Cytofluor™ 2300). The percentage of transmigrated neutrophils was determined by comparing the amount of fluorescence of test wells with that measured in collagen- and fibronectin-coated wells without endothelial cells. […] Percent inhibition of transendothelial migration of neutrophils was calculated by comparing the number of transmigrated cells in wells containing neutrophils treated with peptide to neutrophils treated with M199 alone and arbitrarily set at 100% transendothelial migration (TEM).
The procedures for determining the neutrophil adherence to cultured endothelial cells and the transendothelial migration of neutrophils were identical with those of Example 9. Control values were the same as those shown in Example 9.

[2] = test system: rabbits challenged intracisternally with pneumococcus strain R6; assay: Rabbit model for meningitis, intravenous FHA or peptides; assay type: in vivo; conditions: for Lactate / Protein: CSF at 6 hours
Procedure: The rabbit model was performed according to an established protocol. Specific pathogen free, New Zealand white rabbits (2 kg; Hare Marland, Nutley, N.J.) were anesthetized with valium (2.5 mg/kg, subcutaneously, Hoffman-LaRoche, Nutley, N.J.), ketamine (35 mg/kg, intramuscularly, Aveco, Fort Dodge, Iowa) and xylazine (5 mg/kg, intramuscularly, Miles Laboratories, Shawnee, Kans.) and a helmet of dental acrylic was affixed to the calvarium. Twenty four hours later, the rabbits were anesthetized with ethyl carbamate (1.75 g/kg; Aldrich Chemical Co., Milwaukee, Wis.) and pentobarbital (15 mg/kg; Abbott Laboratories, Abbott Park, Ill.) and placed in a stereotaxic frame. A spinal needle was introduced into the cisterna magna and 300 μl of CSF was withdrawn. The animals were challenged intracisternally with 10^8 heat killed, unencapsulated pneumococcus strain R6 introduced in 200 μl of saline (time 0). One hour later, animals were treated with peptides dissolved in 1 ml of saline by intravenous injection into the right marginal ear vein. The concentration of FHA was 0.1 μM and that of the FHA Ia, Factor X II, and scrambled FHA II peptides was 10 μM. For the acetyl-FHA II, acetyl/amide-FHA II, dimer of FHA II and trimer of FHA II peptides, the concentration was 10^-3 μM. The concentration of FHA II is given in the results section. Samples of CSF were withdrawn at hourly intervals after pneumococcal inoculation and leukocyte density was measured using a cell counter (Coulter Electronics Inc., Hialeah, Fla.). CSF samples were centrifuged at 10,000×g for 5 minutes and the supernatant was stored at -70° C. until assayed for protein concentration using the bicinchoninic acid method (BCA Kit, Pierce Chemical Co., Rockford Ill.) and for lactate concentration (Lactate Detection Kit, Sigma, St. Louis, Mo.). Statistically significant differences between treatments were determined by a one way analysis of variance test.
The anti-inflammatory effects of the administered peptides were assessed in the rabbit model for meningitis by the procedures described in Example 10. The animals received 1 ml of 1 uM peptide intravenously. In a slight departure from the protocol described in Example 10, samples of blood were drawn from the left marginal ear vein 30 minutes after the administration of the peptides to determine peripheral leukocyte concentrations.

Row | Substance | % Inhibition of TEM ([1]; native FHA 1 μM, mAbs 25 μg/ml) [%] | % Inhibition of TEM ([1]; native FHA 1 μM, mAbs 25 μg/ml, listed as acetyl/amide modified FHA peptide II) [%] | leukocytes/μl CSF ([2]; 6 hours post-pneumococcal challenge, 10 nmoles i.v.) [cells/μl] | Lactate ([2]; FHA 0.1 μM, peptides 10 μM) [mg/100 ml] | Protein ([2]; FHA 0.1 μM, peptides 10 μM) [mg/ml CSF] | % Inhibition of TEM ([1]; FHA 1 μM, mAb IB4 25 μg/ml) [%] | % Inhibition of TEM ([1]; FHA 1 μM, mAb IB4 25 μg/ml, listed as Intact FHA) [%] | Total protein in CSF ([2]; 6 hours after intracisternal inoculation of pneumococci) [mg/mL] | mean leukocyte concentration/μl CSF ([2]; 7 hours after challenge, 10^-3 μM i.v.) | mean leukocyte concentration/μl CSF ([2]; 7 hours after challenge, FHA 0.1 μM (25 μg per 2 kg), peptides 10 μM, i.v.) | mean leukocyte density/μl CSF ([2]; 7 hours after challenge, FHA 0.1 μM (25 μg/animal), peptides 1 ml of 1 uM i.v.) [cells/μl CSF] | Total protein in CSF ([2]; 7 hours after intracisternal inoculation of pneumococci) [mg/mL] | reduction of CSF leukocytosis ([2]; 7 hours, FHA 0.1 μM, peptides 10 μM) [%] | anti-inflammatory activity at reduced concentration ([2]; concentrations reduced from 10 to 0.1 μM, FIG. 21) | inflammation, numbers of leukocytes in the cerebrospinal fluid ([2]; intravenous, FIG. 5)
1 | Ac-ETKEVDG-NH2 [Acetyl/Amide-FHA II] | 61 ± 6 | 61±6 | 3011±684 | 24.3 ± 3.2 | 1.2 ± 0.6 |  |  |  |  |  |  |  |  |  | 
2 | Filamentous hemagglutinin [native FHA] | 82±1 |  |  | 25.0 ± 5.3 | 1.3 ± 0.3 | 82 ± 1 | 82±1 | 1.70 ± 0.33 | ineffective | 2096±450 /μl CSF | 2096±450 | 1.86 ± 0.76 | > 60 | more potent anti-inflammatory activity than the corresponding Factor X peptide II | decreases inflammation
